Experimental data as given in PubChem BioAssay AID256 (DTP/NCI, 2004).
Several values for one entry are separate records, joined by “and”; a condition that tells them apart may be missing. Equal entries are not always repeated. Inconclusive results and toxic doses are left out.

System: CD2F1 mice, L1210 leukemia ip, survival T/C
Assay: NCI In Vivo Anticancer Drug Screen. Data for tumor model L1210 Leukemia (intraperitoneal) in CD2F1 (CDF1) mice
Details: higher = longer survival
Procedure, shortened: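 In this screen, transplantable tumors were grown in mice given either the compound or its vehicle. Results were expressed as the treated measurement relative to the control measurement.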

In the case of CO[C@@]12[C@H](COC(N)=O)C3=C(C(=O)C(C)=C(N)C3=O)N1C[C@@H]1N[C@@H]12, the T/C (endpoint: mean survival time, dose: 0.25 mg/kg/injection, schedule: Q01DX009 (ip), vehicle: saline) is reported as 118 % of control and 121 % of control, the T/C (endpoint: mean survival time, dose: 0.38 mg/kg/injection, schedule: Q01DX009 (ip), vehicle: water) is reported as 103 % of control and the T/C (endpoint: mean survival time, dose: 0.4 mg/kg/injection, schedule: Q04DX003 (ip), vehicle: water) is reported as 111 % of control. The T/C (endpoint: mean survival time, dose: 0.45 mg/kg/injection, schedule: Q01DX007 (ip), vehicle: acetone) was 117 % of control, the T/C (endpoint: mean survival time, dose: 0.5 mg/kg/injection, schedule: Q01DX009 (ip), vehicle: water) was 113 % of control and the T/C (endpoint: mean survival time, dose: 0.6 mg/kg/injection, schedule: Q01DX001 (ip), vehicle: carboxymethylcellulose (CMC)) was 111 % of control. For the same compound, the T/C (endpoint: mean survival time, dose: 0.65 mg/kg/injection, schedule: Q04DX003 (ip), vehicle: water) was 111 % of control, the T/C (endpoint: mean survival time, dose: 0.68 mg/kg/injection, schedule: Q01DX007 (ip), vehicle: acetone) was 121 % of control and the T/C (endpoint: mean survival time, dose: 0.68 mg/kg/injection, schedule: Q03DX004 (ip), vehicle: acetone) was 119 % of control. For the same compound, the T/C (endpoint: mean survival time, dose: 0.75 mg/kg/injection, schedule: Q01DX005 (ip), vehicle: clinical formulation) was 120 % of control, the T/C (endpoint: mean survival time, dose: 0.75 mg/kg/injection, schedule: Q01DX009 (ip), vehicle: water) was 104 % of control and the T/C (endpoint: mean survival time, dose: 0.87 mg/kg/injection, schedule: Q01DX001 (ip), vehicle: acetone) was 110 % of control. For the same compound, the T/C (endpoint: mean survival time, dose: 1.0 mg/kg/injection, schedule: Q01DX009 (ip), vehicle: water) was 115 % of control, the T/C (endpoint: mean survival time, dose: 1.0 mg/kg/injection, schedule: Q04DX003 (ip), vehicle: saline) was 116 % of control and the T/C (endpoint: mean survival time, dose: 1.1 mg/kg/injection, schedule: Q04DX003 (ip), vehicle: water) was 119 % of control. For the same compound, the T/C (endpoint: mean survival time, dose: 1.2 mg/kg/injection, schedule: Q01DX001 (ip), vehicle: carboxymethylcellulose (CMC)) was 116 % of control, the T/C (endpoint: mean survival time, dose: 1.5 mg/kg/injection, schedule: Q01DX001 (ip), vehicle: saline) was 105 % of control and the T/C (endpoint: mean survival time, dose: 1.5 mg/kg/injection, schedule: Q01DX005 (ip), vehicle: clinical formulation) was 151 % of control. The T/C (endpoint: mean survival time, dose: 1.55 mg/kg/injection, schedule: Q02DX005 (ip), vehicle: saline) was 119 % of control, the T/C (endpoint: mean survival time, dose: 1.55 mg/kg/injection, schedule: Q03DX004 (ip), vehicle: saline) was 116 % of control and the T/C (endpoint: mean survival time, dose: 1.55 mg/kg/injection, schedule: Q04DX003 (ip), vehicle: saline) was 114 % of control. For the same compound, the T/C (endpoint: mean survival time, dose: 1.55 mg/kg/injection, schedule: Q08DX002 (ip), vehicle: saline) was 104 % of control, the T/C (endpoint: mean survival time, dose: 1.75 mg/kg/injection, schedule: Q01DX001 (ip), vehicle: carboxymethylcellulose (CMC)) was 110 % of control and the T/C (endpoint: mean survival time, dose: 1.75 mg/kg/injection, schedule: Q01DX001 (ip), vehicle: saline) was 120 % of control. For the same compound, the T/C (endpoint: mean survival time, dose: 2.0 mg/kg/injection, schedule: Q01DX009 (ip), vehicle: water) was 107 % of control, the T/C (endpoint: mean survival time, dose: 2.0 mg/kg/injection, schedule: Q04DX003 (ip), vehicle: saline) was 119 % of control and the T/C (endpoint: mean survival time, dose: 2.3 mg/kg/injection, schedule: Q01DX001 (ip), vehicle: acetone) was 150 % of control. For the same compound, the T/C (endpoint: mean survival time, dose: 2.3 mg/kg/injection, schedule: Q01DX001 (ip), vehicle: carboxymethylcellulose (CMC)) was 118 % of control and 111 % of control, the T/C (endpoint: mean survival time, dose: 2.33 mg/kg/injection, schedule: Q02DX005 (ip), vehicle: saline) was 119 % of control and the T/C (endpoint: mean survival time, dose: 2.33 mg/kg/injection, schedule: Q03DX004 (ip), vehicle: saline) was 123 % of control. The T/C (endpoint: mean survival time, dose: 2.33 mg/kg/injection, schedule: Q04DX003 (ip), vehicle: saline) was 121 % of control, the T/C (endpoint: mean survival time, dose: 2.33 mg/kg/injection, schedule: Q08DX002 (ip), vehicle: saline) was 111 % of control and the T/C (endpoint: mean survival time, dose: 2.9 mg/kg/injection, schedule: Q01DX001 (ip), vehicle: saline) was 124 % of control. For the same compound, the T/C (endpoint: mean survival time, dose: 3.0 mg/kg/injection, schedule: Q01DX001 (ip), vehicle: saline) was 124 % of control, the T/C (endpoint: mean survival time, dose: 3.0 mg/kg/injection, schedule: Q01DX005 (ip), vehicle: clinical formulation) was 113 % of control and 98 % of control and the T/C (endpoint: mean survival time, dose: 3.0 mg/kg/injection, schedule: Q01DX009 (ip), vehicle: water) was 101 % of control and 108 % of control. The T/C (endpoint: mean survival time, dose: 3.0 mg/kg/injection, schedule: Q04DX003 (ip), vehicle: saline) was 170 % of control, the T/C (endpoint: mean survival time, dose: 3.5 mg/kg/injection, schedule: Q01DX001 (ip), vehicle: acetone) was 156 % of control and the T/C (endpoint: mean survival time, dose: 3.5 mg/kg/injection, schedule: Q01DX001 (ip), vehicle: carboxymethylcellulose (CMC)) was 155 % of control. For the same compound, the T/C (endpoint: mean survival time, dose: 3.5 mg/kg/injection, schedule: Q04DX003 (ip), vehicle: saline) was 123 % of control, the T/C (endpoint: mean survival time, dose: 3.5 mg/kg/injection, schedule: Q08DX002 (ip), vehicle: saline) was 121 % of control and the T/C (endpoint: mean survival time, dose: 4.5 mg/kg/injection, schedule: Q01DX001 (ip), vehicle: saline) was 108 % of control. The T/C (endpoint: mean survival time, dose: 4.7 mg/kg/injection, schedule: Q01DX001 (ip), vehicle: saline) was 122 % of control, the T/C (endpoint: mean survival time, dose: 5.0 mg/kg/injection, schedule: Q04DX003 (ip), vehicle: water) was 150 % of control and the T/C (endpoint: mean survival time, dose: 5.25 mg/kg/injection, schedule: Q01DX001 (ip), vehicle: carboxymethylcellulose (CMC)) was 176 % of control. The T/C (endpoint: mean survival time, dose: 5.25 mg/kg/injection, schedule: Q01DX004 (ip), vehicle: saline) was 152 % of control, the T/C (endpoint: mean survival time, dose: 5.25 mg/kg/injection, schedule: Q01DX005 (ip), vehicle: saline) was 165 % of control and the T/C (endpoint: mean survival time, dose: 7.0 mg/kg/injection, schedule: Q01DX003 (ip), vehicle: saline) was 150 % of control. For the same compound, the T/C (endpoint: mean survival time, dose: 7.0 mg/kg/injection, schedule: Q04DX003 (ip), vehicle: saline) was 152 % of control, the T/C (endpoint: mean survival time, dose: 8.3 mg/kg/injection, schedule: Q04DX003 (ip), vehicle: water) was 119 % of control and the T/C (endpoint: mean survival time, dose: 10.5 mg/kg/injection, schedule: Q01DX001 (ip), vehicle: carboxymethylcellulose (CMC)) was 114 % of control. The T/C (endpoint: mean survival time, dose: 12.0 mg/kg/injection, schedule: Q01DX001 (ip), vehicle: saline) was 112 % of control, the T/C (endpoint: median survival time, dose: 0.1 mg/kg/injection, schedule: Q01DX009 (ip), vehicle: saline) was 192 % of control and the T/C (endpoint: median survival time, dose: 0.1 mg/kg/injection, schedule: Q04DX003 (ip), vehicle: saline) was 108 % of control. The T/C (endpoint: median survival time, dose: 0.12 mg/kg/injection, schedule: Q01DX009 (ip), vehicle: Klucel (hydroxypropylcellulose) (HPC)) was 102 % of control, the T/C (endpoint: median survival time, dose: 0.2 mg/kg/injection, schedule: Q01DX009 (ip), vehicle: saline) was 113 % of control and the T/C (endpoint: median survival time, dose: 0.2 mg/kg/injection, schedule: Q04DX003 (ip), vehicle: saline) was 107 % of control. For the same compound, the T/C (endpoint: median survival time, dose: 0.25 mg/kg/injection, schedule: Q01DX009 (ip), vehicle: Klucel (hydroxypropylcellulose) (HPC)) was 102 % of control, the T/C (endpoint: median survival time, dose: 0.25 mg/kg/injection, schedule: Q01DX009 (ip), vehicle: saline) was 109 % of control and the T/C (endpoint: median survival time, dose: 0.25 mg/kg/injection, schedule: Q01DX009 (ip), vehicle: water) was 115 % of control. The T/C (endpoint: median survival time, dose: 0.4 mg/kg/injection, schedule: Q01DX001 (ip), vehicle: saline) was 113 % of control, the T/C (endpoint: median survival time, dose: 0.4 mg/kg/injection, schedule: Q01DX009 (ip), vehicle: saline) was 124 % of control and the T/C (endpoint: median survival time, dose: 0.4 mg/kg/injection, schedule: Q04DX003 (ip), vehicle: saline) was 109 % of control. The T/C (endpoint: median survival time, dose: 0.5 mg/kg/injection, schedule: Q01DX009 (ip), vehicle: Klucel (hydroxypropylcellulose) (HPC)) was 104 % of control, the T/C (endpoint: median survival time, dose: 0.5 mg/kg/injection, schedule: Q01DX009 (ip), vehicle: saline) was 118 % of control and the T/C (endpoint: median survival time, dose: 0.75 mg/kg/injection, schedule: Q01DX001 (ip), vehicle: saline) was 115 % of control. The T/C (endpoint: median survival time, dose: 0.8 mg/kg/injection, schedule: Q01DX001 (ip), vehicle: saline) was 112 % of control, the T/C (endpoint: median survival time, dose: 0.8 mg/kg/injection, schedule: Q04DX003 (ip), vehicle: saline) was 124 % of control and the T/C (endpoint: median survival time, dose: 1.0 mg/kg/injection, schedule: Q01DX009 (ip), vehicle: Klucel (hydroxypropylcellulose) (HPC)) was 116 % of control. For the same compound, the T/C (endpoint: median survival time, dose: 1.6 mg/kg/injection, schedule: Q01DX009 (ip), vehicle: saline) was 165 % of control, the T/C (endpoint: median survival time, dose: 1.8 mg/kg/injection, schedule: Q01DX001 (ip), vehicle: water) was 116 % of control and 102 % of control and 105 % of control and the T/C (endpoint: median survival time, dose: 2.4 mg/kg/injection, schedule: Q03DX003 (ip), vehicle: saline) was 118 % of control and 203 % of control. For the same compound, the T/C (endpoint: median survival time, dose: 3.2 mg/kg/injection, schedule: Q01DX009 (ip), vehicle: saline) was 96 % of control, the T/C (endpoint: median survival time, dose: 3.2 mg/kg/injection, schedule: Q04DX003 (ip), vehicle: saline) was 168 % of control and the T/C (endpoint: median survival time, dose: 3.6 mg/kg/injection, schedule: Q01DX001 (ip), vehicle: saline) was 155 % of control and 160 % of control. The T/C (endpoint: median survival time, dose: 4.0 mg/kg/injection, schedule: Q01DX009 (ip), vehicle: saline) was 97 % of control, the T/C (endpoint: median survival time, dose: 4.8 mg/kg/injection, schedule: Q01DX001 (ip), vehicle: saline) was 166 % of control and the T/C (endpoint: median survival time, dose: 4.8 mg/kg/injection, schedule: Q03DX003 (ip), vehicle: saline) was 190 % of control. The T/C (endpoint: median survival time, dose: 5.0 mg/kg/injection, schedule: Q01DX001 (ip), vehicle: water) was 113 % of control and 115 % of control, the T/C (endpoint: median survival time, dose: 5.4 mg/kg/injection, schedule: Q01DX001 (ip), vehicle: saline) was 166 % of control and the T/C (endpoint: median survival time, dose: 6.0 mg/kg/injection, schedule: Q01DX009 (ip), vehicle: clinical formulation) was 98 % of control. For the same compound, the T/C (endpoint: median survival time, dose: 6.4 mg/kg/injection, schedule: Q01DX001 (ip), vehicle: saline) was 156 % of control, the T/C (endpoint: median survival time, dose: 8.0 mg/kg/injection, schedule: Q01DX001 (ip), vehicle: saline) was 156 % of control and 172 % of control and the T/C (endpoint: median survival time, dose: 8.3 mg/kg/injection, schedule: Q01DX001 (ip), vehicle: water) was 123 % of control.
